Measurements from patent US8329395B2 (priority 2003, dated 2012).

What was measured:
[1] = tested on: thiA-lacZ fusion (ΩamyE::thiA-lacZ) in B. subtilis TH21; type: cell-based, Bacillus subtilis; conditions: for repression of thiA-lacZ expression: 1 μM in shake-flask culture, early logarithmic phase (OD600=0.8-0.9), compared to minimal medium without thiamin; for repressing activity on thiA-lacZ expression: 1 μM each
Procedure: The strategy to isolate thiamin deregulated mutants of B. subtilis was to mutagenize bacteria that contained a thiA-lacZ fusion and then screen for colonies on XGAL-containing medium that were Lac^+ (i.e. blue colonies) in the presence of TPP or thiamin. A 732 bp-long DNA fragment containing 417 bp of the 5′ promoter region of thiA was prepared by PCR using standard methods and cloned unidirectionally in front of the promoterless lacZ gene of the pDG1728 vector (Guerout-Fleury et al. (1996) Gene 180:57-61), resulting in plasmid pTH12. This vector is designed to introduce ectopic transcriptional lacZ fusions into the non-essential amyE locus of B. subtilis. Plasmid pTH12 was linearized by restriction enzyme digestion and transformed into B. subtilis PY79, selecting for colonies that were resistant to 100 μg/ml spectinomycin.

[2] = tested on: B. subtilis PY79 gene transcripts; test: Microarray profiling of transcript levels in response to TPP; type: cell-based, Bacillus subtilis; conditions: wild-type cells, exponential phase, minimal medium without TPP vs with TPP
Procedure: In order to perform microarray profiling, PY79 was grown in shake-flask cultures that contained 50 ml Spizizen minimal medium with or without added thiamin pyrophosphate. Overnight cultures were diluted to Klett=10 units into fresh medium and grown to exponential growth phase (Klett=100 units). Cells from half of the culture were collected by centrifugation, and the total RNA was immediately extracted as previously described (Lee et al. (2001) J. Bacteriol. 183:7371-7380). The remaining culture was grown to early stationary phase before RNA extraction. Early stationary phase was judged to be 30 min after glucose exhaustion; glucose content in the medium was measured by a glucose analyzer 2 (Beckman, Fullerton, Calif.) using standard procedures. Preparation of labeled cDNA targets, microarray hybridization and staining procedures, and data analysis are described in Lee et al. above.

Which “repression of thiA-lacZ expression” value [1] does the source give for `Cc1ncc(CO)c(N)n1` [HMP, 4-amino-5-hydroxymethyl-2-methylpyrimidine] here?
Its value is 6- to 7 fold.

How did the “transcript ratio wt−vit/wt+vit, gene dxs (yqiE)” value [2] turn out when `Cc1ncc(C[n+]2csc(CCOP(=O)(O)OP(=O)(O)O)c2C)c(N)n1` [TPP, thiamin pyrophosphate] was run?
The value was “n/c”.

What about the “transcript ratio wt−vit/wt+vit, gene thiA” value [2] of the same compound?
Its value is 62.

What about the “transcript ratio wt−vit/wt+vit, gene thiC” value [2] of the same compound?
The value was “n/c”.

What about the “transcript ratio wt−vit/wt+vit, gene thiD1 (yjbV)” value [2] of the same compound?
The value was 32.

What about the “transcript ratio wt−vit/wt+vit, gene thiD2” value [2] of the same compound?
Its value is “n/c^b”.

And the “transcript ratio wt−vit/wt+vit, gene thiF (yjbU)” value [2]?
Its value is 90.

And the “transcript ratio wt−vit/wt+vit, gene thiG (yjbT)” value [2]?
Its value is 82.

And the “transcript ratio wt−vit/wt+vit, gene thiK” value [2]?
Its value is “n/c”.

And the “transcript ratio wt−vit/wt+vit, gene thiL (ydiA)” value [2]?
Its value is “n/c”.

And the “transcript ratio wt−vit/wt+vit, gene thiO (goxB)” value [2]?
The value was 67.

And the “transcript ratio wt−vit/wt+vit, gene thiS (yjbS)” value [2]?
The value was 84.

What about the “transcript ratio wt−vit/wt+vit, gene ykoC” value [2] of the same compound?
Its value is 12.

And the “transcript ratio wt−vit/wt+vit, gene ykoD” value [2]?
Its value is 26.

What about the “transcript ratio wt−vit/wt+vit, gene ykoE” value [2] of the same compound?
Its value is 17.

What about the “transcript ratio wt−vit/wt+vit, gene ykoF” value [2] of the same compound?
The value was 20.

What about the “transcript ratio wt−vit/wt+vit, gene ylmB” value [2] of the same compound?
The value was 5.0.

What about the “transcript ratio wt−vit/wt+vit, gene yloS” value [2] of the same compound?
The value was 1.6.

What about the “transcript ratio wt−vit/wt+vit, gene ytbJ” value [2] of the same compound?
Its value is “n/c”.

What about the “transcript ratio wt−vit/wt+vit, gene yuaA” value [2] of the same compound?
Its value is 7.4.

How did the “repressing activity on thiA-lacZ expression” value [1] turn out when `c1cscn1` [thiazole] was run?
The value was “showed repressing activity”.

For `Nc1ncnc2c1ncn2[C@@H]1O[C@H](CO)[C@@H](O)[C@H]1O` [adenosine], which “repressing activity on thiA-lacZ expression” value [1] is on record?
The value was “showed repressing activity”.

`Cc1ncc(C[n+]2csc(CCO)c2C)c(N)n1` [thiamin] was tested. Which “repression of thiA-lacZ expression” value [1] did it give?
The value was “approximately 80 fold”.
